This passage reports TGI and GI50 results from PubChem BioAssay (NCI).

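The compound was tested at five concentrations on cells cultured in 96-well plates, with a 48-hour exposure period. GI50 is the concentration that inhibits growth by half. The concentration for full growth arrest is given as TGI.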 Where only a bound is given, the exact number is not on record here.

Some test systems named below: 786-0 renal; A549 NSCLC; HOP-62 NSCLC; HT29 colon; IGROV1 ovarian; MALME-3M melanoma; OVCAR-5 ovarian; SK-MEL-5 melanoma; SNB-75 CNS; SN12C renal.
Experiment in all cases: DTP human tumour cell line panel, 48 h

`COC1=CC(=O)C2C(C1=O)C(c1ccccc1)[C@H]2C` (stereo not given in full): the TGI (usually the concentration giving total growth inhibition) with 786-0 renal is more than 100 µM; in the test on A549 NSCLC it was more than 100 µM; with HOP-62 NSCLC, more than 100 µM; with HT29 colon, more than 100 µM; with IGROV1 ovarian, more than 100 µM; in the test on MALME-3M melanoma, 57 µM. In addition, the TGI with OVCAR-5 ovarian, with SK-MEL-5 melanoma and with SNB-75 CNS was more than 100 µM each time.
With `COc1cc(CNc2ccccc2C(=O)N2CCN(C(=O)c3cc(-c4cc(OC)c(OC)c(OC)c4)n4nc(-c5ccccc5)cc4n3)CC2)cc(OC)c1OC`, the GI50 (in general, the concentration at which growth is held to half of that of the control) in the test with 786-0 renal is 4.49 µM; in the test with A549 NSCLC it was 3.55 µM; with HOP-62 NSCLC, 6.04 µM; with HT29 colon, 3.5 µM; in the test with IGROV1 ovarian, 7.73 µM; in the test with OVCAR-5 ovarian, 10.9 µM. For the same molecule, the GI50 in the test with SK-MEL-5 melanoma was 1.58 µM; in the test on SN12C renal, 17 µM; with SNB-75 CNS it was 1.98 µM. The TGI with 786-0 renal is more than 100 µM; in the test with A549 NSCLC, more than 100 µM; with HOP-62 NSCLC, more than 100 µM; with HT29 colon, 12 µM; with IGROV1 ovarian, more than 100 µM; with OVCAR-5 ovarian it was more than 100 µM. Further, the concentration for total growth inhibition (TGI) was 3.91 µM in the test on SK-MEL-5 melanoma, more than 100 µM in the test with SN12C renal and more than 100 µM in the test on SNB-75 CNS.
In the case of `COc1cc(-c2nc(-c3nc4ccccc4[nH]3)cc3c2[nH]c2ccccc23)cc(OC)c1OC`, the GI50 is 50.7 µM with 786-0 renal; 3.2 µM in the test on A549 NSCLC; 5.87 µM in the test with HOP-62 NSCLC; 6.87 µM with HT29 colon; 2.94 µM in the test on IGROV1 ovarian; 4.31 µM in the test with MALME-3M melanoma. Moreover, the GI50 with OVCAR-5 ovarian was more than 100 µM; in the test with SK-MEL-5 melanoma it was 2.99 µM; in the test with SN12C renal, 6.27 µM. Also, the TGI in the test on 786-0 renal, with A549 NSCLC, in the test on HOP-62 NSCLC, in the test on HT29 colon, in the test with IGROV1 ovarian and in the test with MALME-3M melanoma was more than 100 µM in each case. Also, the total growth inhibition concentration (TGI) in the test on OVCAR-5 ovarian, in the test with SK-MEL-5 melanoma and in the test on SN12C renal was more than 100 µM each time.
On to `Cc1cn2c(/C=N/N=C(N)N)c(-c3cccs3)nc2s1`, for which the GI50 with 786-0 renal was 2.42 µM; with A549 NSCLC it was 10.6 µM; with HT29 colon it was 2.1 µM; with IGROV1 ovarian, 10.5 µM; with OVCAR-5 ovarian, 2.37 µM; in the test on SK-MEL-5 melanoma, 0.376 µM. For the same molecule, the 50% growth inhibitory concentration (GI50) in the test with SN12C renal is 0.161 µM. Also, the TGI in the test on 786-0 renal came out at 6.06 µM; with A549 NSCLC, 31.1 µM; with HT29 colon it was 7.14 µM; in the test with IGROV1 ovarian, 27.1 µM; in the test on OVCAR-5 ovarian it was 7.37 µM; with SK-MEL-5 melanoma, 2.19 µM. For the same molecule, in the test with SN12C renal, the concentration for total growth inhibition (TGI) was 3.08 µM.
Turning to `O=c1c(Cl)c(Cl)c(=O)c2sc3cc(Cl)ccc3[nH]c1=2`, the concentration for total growth inhibition (TGI) with 786-0 renal, in the test with A549 NSCLC, with HOP-62 NSCLC, in the test on HT29 colon, in the test on IGROV1 ovarian and in the test with MALME-3M melanoma was more than 100 µM throughout. Moreover, the concentration for total growth inhibition (TGI) in the test with OVCAR-5 ovarian, in the test on SK-MEL-5 melanoma and with SNB-75 CNS was more than 100 µM throughout.
For `O=C(Nc1cccc(O)c1)C(=O)C(C(=O)c1ccc(Cl)c(Cl)c1)C1OC(=O)c2ccccc21` (stereo not given), the TGI in the test on 786-0 renal is 26.4 µM; in the test with A549 NSCLC, more than 100 µM; in the test with HT29 colon it was 68.4 µM; in the test with IGROV1 ovarian it was 56.5 µM; with MALME-3M melanoma, 33.8 µM; in the test on OVCAR-5 ovarian, 65.2 µM. The TGI is 37.6 µM in the test on SK-MEL-5 melanoma, 38.4 µM with SN12C renal and 71.4 µM in the test on SNB-75 CNS.
For `CNC(=O)Cc1nc(-c2cccc(NS(=O)(=O)c3c(F)cccc3F)c2F)c(-c2ccnc(Nc3ccccc3)n2)s1`, the GI50 in the test on 786-0 renal was 10.1 µM; in the test on A549 NSCLC it was 8.53 µM; with HOP-62 NSCLC, 3.27 µM; in the test on HT29 colon it was 0.0327 µM; in the test with IGROV1 ovarian, 0.462 µM; with OVCAR-5 ovarian it was 2.85 µM. Also, the concentration for 50% growth inhibition (GI50) in the test on SK-MEL-5 melanoma is 0.0866 µM; in the test on SN12C renal, 1.71 µM; in the test with SNB-75 CNS, 0.6 µM. In addition, the TGI was more than 50 µM with 786-0 renal; more than 50 µM with A549 NSCLC; more than 50 µM with HOP-62 NSCLC; more than 50 µM with HT29 colon; more than 19.6 µM with IGROV1 ovarian; more than 50 µM in the test on OVCAR-5 ovarian. The TGI is more than 19.8 µM with SK-MEL-5 melanoma, more than 50 µM with SN12C renal and 49.8 µM in the test with SNB-75 CNS.
For `Nc1ccn(C2OC(COC(=O)C34CC5CC(CC(C5)C3)C4)C(O)C2O)c(=O)n1` (stereo not given), the TGI in the test with 786-0 renal, in the test with A549 NSCLC, in the test on HT29 colon, in the test with IGROV1 ovarian, with MALME-3M melanoma and with OVCAR-5 ovarian was more than 100 µM throughout. Further, the concentration for total growth inhibition (TGI) in the test with SK-MEL-5 melanoma, in the test on SN12C renal and in the test with SNB-75 CNS was more than 100 µM throughout.
With `COc1ccc(OC)c2c1[nH]c(=O)c1c3ncccc3cn21`, the GI50 is 5.44 µM in the test with 786-0 renal; 2.83 µM in the test with A549 NSCLC; 3.22 µM in the test with HOP-62 NSCLC; 1.49 µM in the test with HT29 colon; 3.21 µM in the test on IGROV1 ovarian; 5.51 µM with MALME-3M melanoma. Also, the results for the GI50 with SK-MEL-5 melanoma, in the test on SN12C renal and with SNB-75 CNS were 3.79 µM, 4.48 µM and 4.39 µM, respectively. The TGI in the test on 786-0 renal is more than 100 µM; with A549 NSCLC, 15.3 µM; with HOP-62 NSCLC it was more than 100 µM; in the test with HT29 colon, 4.34 µM; in the test with IGROV1 ovarian it was more than 100 µM; in the test on MALME-3M melanoma it was more than 100 µM. Moreover, the TGI in the test on SK-MEL-5 melanoma was more than 100 µM; in the test on SN12C renal it was more than 100 µM; with SNB-75 CNS, 62 µM.
For `SCCSCCCSCCS`, the TGI with 786-0 renal, in the test on A549 NSCLC, in the test on HOP-62 NSCLC, in the test with HT29 colon, in the test with IGROV1 ovarian and with OVCAR-5 ovarian was more than 100 µM each time. Besides, the TGI in the test on SK-MEL-5 melanoma, in the test with SN12C renal and in the test on SNB-75 CNS was more than 100 µM in each case.
As to `CC1=NN(C(=O)c2ccc([N+](=O)[O-])cc2)C(=O)C1N=Nc1ccccc1C(=O)O` (stereo not given), the TGI with 786-0 renal, in the test on A549 NSCLC, in the test with HT29 colon, in the test with IGROV1 ovarian, in the test with MALME-3M melanoma and in the test on OVCAR-5 ovarian was more than 100 µM throughout. Moreover, the TGI in the test with SK-MEL-5 melanoma, in the test with SN12C renal and in the test on SNB-75 CNS was more than 100 µM in each case.
